# Data taken from patent publication US20060069132A1, “Azolecarboxamide herbicides” (priority 2004, published 2006).
# What was measured:
# [1] = test system: cocklebur; assay: Test B pre-/postemergence herbicide test; format: in vivo, Xanthium strumarium; conditions: for Plant response rating (0 to 100 scale), Cocklebur: 0 is no effect, 100 is complete control, preemergence; for Cocklebur plant response rating: scale 0 (no effect) to 100 (complete control)
# Method in brief: (§1)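 Response was scored visually 13 to 15 days after treatment against untreated greenhouse controls, 0 meaning no effect and 100 complete control. Formulations (solvent mixture plus surfactant) went onto soil after planting, onto foliage of 1- to 4-leaf plants, and onto 2-leaf plants in a flooded paddy set including rice and barnyardgrass.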
# [2] = test system: lambsquarters; assay: Test B pre-/postemergence herbicide test; format: in vivo, Chenopodium album; conditions: for Plant response rating (0 to 100 scale), Lambsquarters: 0 is no effect, 100 is complete control, preemergence; for Lambsquarters plant response rating: scale 0 (no effect) to 100 (complete control)
# Method in brief: (§2)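 Greenhouse pot assay with simultaneous preemergence (treated seed) and postemergence (2–18 cm seedlings) applications of surfactant-containing, non-phytotoxic solvent formulations. Response scored visually 13–15 days later on a 0–100 scale, 100 meaning complete control.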
# [3] = test system: pigweed; assay: Test B pre-/postemergence herbicide test; format: in vivo, Amaranthus retroflexus; conditions: for Plant response rating (0 to 100 scale), Pigweed: 0 is no effect, 100 is complete control, preemergence; for Pigweed plant response rating: scale 0 (no effect) to 100 (complete control)
# Method in brief: as §2
# [4] = test system: small flower umbrella sedge; assay: Test B flooded paddy test; format: in vivo, Cyperus difformis; conditions: 1000 g ai/ha, scale 0 to 100 (0 no effect, 100 complete control)
# Method in brief: (§3)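 Visual control ratings, 0–100 versus untreated controls, taken after 13 to 15 days in the greenhouse. Blackgrass received a postemergence spray at the 1- to 4-leaf stage (2–18 cm); ducksalad, umbrella sedge and barnyardgrass were flooded-paddy treated at 2 leaves.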
# [5] = test system: Surinam grass; assay: Test B pre-/postemergence herbicide test; format: in vivo, Urochloa decumbens; conditions: for Plant response rating (0 to 100 scale), Surinam Grass: 0 is no effect, 100 is complete control, preemergence; for Surinam Grass plant response rating: scale 0 (no effect) to 100 (complete control)
# Method in brief: as §2
# [6] = test system: barnyardgrass; assay: Test B pre-/postemergence herbicide test; format: in vivo, Echinochloa crus-galli; conditions: for Plant response rating (0 to 100 scale), Barnyardgrass: 0 is no effect, 100 is complete control, preemergence; for Barnyardgrass plant response rating: scale 0 (no effect) to 100 (complete control)
# Method in brief: as §1
# [7] = test system: morningglory; assay: Test B pre-/postemergence herbicide test; format: in vivo, Ipomoea coccinea; conditions: for Plant response rating (0 to 100 scale), Morningglory: 0 is no effect, 100 is complete control, preemergence; for Morningglory plant response rating: scale 0 (no effect) to 100 (complete control)
# Method in brief: as §1
# [8] = test system: barnyardgrass; assay: Test B flooded paddy test; format: in vivo, Echinochloa crus-galli; conditions: 1000 g ai/ha, scale 0 to 100 (0 no effect, 100 complete control)
# Method in brief: as §3
# [9] = test system: corn; assay: Test B pre-/postemergence herbicide test; format: in vivo, Zea mays; conditions: for Plant response rating (0 to 100 scale), Corn: 0 is no effect, 100 is complete control, preemergence; for Corn plant response rating: scale 0 (no effect) to 100 (complete control)
# Method in brief: as §2
# [10] = test system: wheat; assay: Test B postemergence herbicide test; format: in vivo, Triticum aestivum; design: key to Wheat plant response rating: 0 = no effect, 100 = complete control
# Method in brief: (§4)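 Formulated test chemicals went onto postemergence plants measuring 2 to 18 cm, at one to four leaves. For the paddy assay, species had reached two leaves. Scoring took place 13–15 days later by eye, relative to untreated plants, using 0 for no effect up to 100 for full control.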
# [11] = test system: ducksalad; assay: Test B flooded paddy test; format: in vivo, Heteranthera limosa; conditions: 1000 g ai/ha, scale 0 to 100 (0 no effect, 100 complete control)
# Method in brief: as §3
# [12] = test system: large crabgrass; assay: Test B pre-/postemergence herbicide test; format: in vivo, Digitaria sanguinalis; conditions: for Plant response rating (0 to 100 scale), Crabgrass, Large: 0 is no effect, 100 is complete control, preemergence; for Crabgrass, Large plant response rating: scale 0 (no effect) to 100 (complete control)
# Method in brief: as §2
# [13] = test system: blackgrass; assay: Test B postemergence herbicide test; format: in vivo, Alopecurus myosuroides; conditions: scale 0 (no effect) to 100 (complete control)
# Method in brief: as §3
# [14] = test system: velvetleaf; assay: Test B pre-/postemergence herbicide test; format: in vivo, Abutilon theophrasti; conditions: for Plant response rating (0 to 100 scale), Velvetleaf: 0 is no effect, 100 is complete control, preemergence; for Velvetleaf plant response rating: scale 0 (no effect) to 100 (complete control)
# Method in brief: as §2
# [15] = test system: rice; assay: Test B flooded paddy test; format: in vivo, Oryza sativa; conditions: 1000 g ai/ha, scale 0 to 100 (0 no effect, 100 complete control)
# Method in brief: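 Greenhouse test; postemergence application to plants at 1–4 leaves (2–18 cm); paddy species at 2 leaves; evaluated visually vs controls at 13–15 days; scale 0–100 (100 = complete control).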
# [16] = test system: giant foxtail; assay: Test B pre-/postemergence herbicide test; format: in vivo, Setaria faberi; conditions: for Plant response rating (0 to 100 scale), Foxtail, Giant: 0 is no effect, 100 is complete control, preemergence; for Foxtail, Giant plant response rating: scale 0 (no effect) to 100 (complete control)
# Method in brief: as §2
# [17] = test system: wild oat; assay: Test B postemergence herbicide test; format: in vivo, Avena fatua; conditions: scale 0 (no effect) to 100 (complete control)
# Method in brief: as §4
# [18] = 125 g ai/ha, visual rating, postemergence
# [19] = 125 g ai/ha, visual rating, scale 0 (no effect) to 100 (complete control), postemergence
# [20] = 500 g ai/ha, scale 0 to 100, 0 no effect, 100 complete control, preemergence
# [21] = Postemergence, 500 g ai/ha, scale 0 (no effect) to 100 (complete control)
smiles,measurement,setting,value
Cc1nn(C(C)C)nc1C(=O)Nc1cc(C(=O)N(C)C)ccc1F [Compound 400],"Plant response rating (0 to 100 scale), Cocklebur",[1]; 125 g ai/ha,0
same,Cocklebur plant response rating,[1]; [18],0
same,Cocklebur plant response rating,"[1]; Postemergence, 500 g ai/ha",0
same,"Plant response rating (0 to 100 scale), Lambsquarters",[2]; 125 g ai/ha,0
same,Lambsquarters plant response rating,[2]; [18],0
same,Lambsquarters plant response rating,"[2]; Postemergence, 500 g ai/ha",10
same,"Plant response rating (0 to 100 scale), Pigweed",[3]; 125 g ai/ha,0
same,Pigweed plant response rating,[3]; [18],0
same,Pigweed plant response rating,"[3]; Postemergence, 500 g ai/ha",20
same,"Sedge, Umbrella plant response rating",[4],80
same,"Plant response rating (0 to 100 scale), Surinam Grass",[5]; 125 g ai/ha,0
same,Surinam Grass plant response rating,[5]; [18],0
same,Surinam Grass plant response rating,"[5]; Postemergence, 500 g ai/ha",0
same,"Plant response rating (0 to 100 scale), Barnyardgrass",[6]; 125 g ai/ha,0
same,Barnyardgrass plant response rating,[6]; [18],0
same,Barnyardgrass plant response rating,"[6]; Postemergence, 500 g ai/ha",0
same,"Plant response rating (0 to 100 scale), Morningglory",[7]; 125 g ai/ha,0
same,Morningglory plant response rating,[7]; [18],0
same,Morningglory plant response rating,"[7]; Postemergence, 500 g ai/ha",0
same,Barnyardgrass plant response rating,[8],0
same,"Plant response rating (0 to 100 scale), Corn",[9]; 125 g ai/ha,0
same,Corn plant response rating,[9]; [18],0
same,Corn plant response rating,"[9]; Postemergence, 500 g ai/ha",0
same,Wheat plant response rating,[10]; [19],0
same,Wheat plant response rating,[10]; [20],0
same,Wheat plant response rating,[10]; [21],0
same,Ducksalad plant response rating,[11],20
same,"Plant response rating (0 to 100 scale), Crabgrass, Large",[12]; 125 g ai/ha,0
same,"Crabgrass, Large plant response rating",[12]; [18],0
same,"Crabgrass, Large plant response rating","[12]; Postemergence, 500 g ai/ha",0
same,Blackgrass plant response rating,[13]; [18],0
same,Blackgrass plant response rating,"[13]; Postemergence, 500 g ai/ha",0
same,"Plant response rating (0 to 100 scale), Velvetleaf",[14]; 125 g ai/ha,0
same,Velvetleaf plant response rating,[14]; [18],0
same,Velvetleaf plant response rating,"[14]; Postemergence, 500 g ai/ha",30
same,Rice plant response rating,[15],0
same,"Plant response rating (0 to 100 scale), Foxtail, Giant",[16]; 125 g ai/ha,0
same,"Foxtail, Giant plant response rating",[16]; [18],0
same,"Foxtail, Giant plant response rating","[16]; Postemergence, 500 g ai/ha",0
same,"Oat, Wild plant response rating",[17]; [18],0
same,"Oat, Wild plant response rating","[17]; Postemergence, 500 g ai/ha",0
CCN(C)C(=O)c1ccc(F)c(NC(=O)c2nn(C(C)C)nc2C)c1 [Compound 403],"Plant response rating (0 to 100 scale), Cocklebur",[1]; 125 g ai/ha,0
same,Cocklebur plant response rating,[1]; [18],0
same,Cocklebur plant response rating,"[1]; Postemergence, 500 g ai/ha",0
same,"Plant response rating (0 to 100 scale), Lambsquarters",[2]; 125 g ai/ha,0
same,Lambsquarters plant response rating,[2]; [18],0
same,Lambsquarters plant response rating,"[2]; Postemergence, 500 g ai/ha",10
same,"Plant response rating (0 to 100 scale), Pigweed",[3]; 125 g ai/ha,0
same,Pigweed plant response rating,[3]; [18],0
same,Pigweed plant response rating,"[3]; Postemergence, 500 g ai/ha",0
same,"Sedge, Umbrella plant response rating",[4],10
same,"Plant response rating (0 to 100 scale), Surinam Grass",[5]; 125 g ai/ha,0
same,Surinam Grass plant response rating,[5]; [18],0
same,Surinam Grass plant response rating,"[5]; Postemergence, 500 g ai/ha",10
same,"Plant response rating (0 to 100 scale), Barnyardgrass",[6]; 125 g ai/ha,0
same,Barnyardgrass plant response rating,[6]; [18],0
same,Barnyardgrass plant response rating,"[6]; Postemergence, 500 g ai/ha",0
same,"Plant response rating (0 to 100 scale), Morningglory",[7]; 125 g ai/ha,0
same,Morningglory plant response rating,[7]; [18],0
same,Morningglory plant response rating,"[7]; Postemergence, 500 g ai/ha",0
same,Barnyardgrass plant response rating,[8],0
same,"Plant response rating (0 to 100 scale), Corn",[9]; 125 g ai/ha,0
same,Corn plant response rating,[9]; [18],0
same,Corn plant response rating,"[9]; Postemergence, 500 g ai/ha",0
same,Wheat plant response rating,[10]; [19],0
same,Wheat plant response rating,[10]; [20],0
same,Wheat plant response rating,[10]; [21],0
same,Ducksalad plant response rating,[11],0
same,"Plant response rating (0 to 100 scale), Crabgrass, Large",[12]; 125 g ai/ha,0
same,"Crabgrass, Large plant response rating",[12]; [18],0
same,"Crabgrass, Large plant response rating","[12]; Postemergence, 500 g ai/ha",0
same,Blackgrass plant response rating,[13]; [18],0
same,Blackgrass plant response rating,"[13]; Postemergence, 500 g ai/ha",0
same,"Plant response rating (0 to 100 scale), Velvetleaf",[14]; 125 g ai/ha,0
same,Velvetleaf plant response rating,[14]; [18],0
same,Velvetleaf plant response rating,"[14]; Postemergence, 500 g ai/ha",10
same,Rice plant response rating,[15],0
same,"Plant response rating (0 to 100 scale), Foxtail, Giant",[16]; 125 g ai/ha,0
same,"Foxtail, Giant plant response rating",[16]; [18],0
same,"Foxtail, Giant plant response rating","[16]; Postemergence, 500 g ai/ha",0
same,"Oat, Wild plant response rating",[17]; [18],0
same,"Oat, Wild plant response rating","[17]; Postemergence, 500 g ai/ha",0
